This experiment concerns the target T1, human DGAT1 enzyme (Homo sapiens, UniProt O75907).
T1 construct: made in house; host or cells: Sf9 insect cells (microsomes)
T1 sequence (O75907 1-488): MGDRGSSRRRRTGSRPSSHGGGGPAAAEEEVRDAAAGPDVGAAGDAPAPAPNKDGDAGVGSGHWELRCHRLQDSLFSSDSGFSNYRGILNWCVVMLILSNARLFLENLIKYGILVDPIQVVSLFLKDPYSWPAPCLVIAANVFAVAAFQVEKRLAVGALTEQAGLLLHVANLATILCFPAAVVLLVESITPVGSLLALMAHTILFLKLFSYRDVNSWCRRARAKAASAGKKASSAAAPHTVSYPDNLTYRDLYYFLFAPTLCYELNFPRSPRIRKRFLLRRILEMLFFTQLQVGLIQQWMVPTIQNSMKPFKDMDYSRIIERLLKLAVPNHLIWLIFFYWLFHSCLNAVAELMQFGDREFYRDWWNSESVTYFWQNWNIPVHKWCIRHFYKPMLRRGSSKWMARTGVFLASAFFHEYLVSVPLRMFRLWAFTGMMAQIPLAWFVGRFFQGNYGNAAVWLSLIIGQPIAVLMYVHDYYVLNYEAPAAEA
The experiment in a line: in vitro DGAT1 inhibition assay (microsomes, [14C]-palmitoyl-CoA, scintillation proximity). The class given is biochemical. Conditions: human DGAT1 expressed in Sf9 insect cell microsomes; 2 hours at room temperature; read-out: hDGAT IC50. The protocol:
A useful assay to determine the DGAT inhibitory activity of the inventive compounds is described below:
The in vitro assay to identify DGAT1 inhibitors uses human DGAT1 enzyme expressed in Sf9 insect cells prepared as microsomes. The reaction is initiated by the addition of the combined substrates 1,2-dioleoyl-sn-glycerol and [^14C]-palmitoyl-CoA and incubated with test compounds and microsomal membranes for 2 hours at room temperature. The assay is stopped by adding 0.5 mg wheat germ agglutinin beads in assay buffer with 1% Brij-35 and 1% 3-cholamidopropyldimethyl-ammonio-1-propane sulfonate. Plates are sealed with TopSeal and incubated for 18 hours to allow the radioactive triglyceride product to come into proximity with the bead. Plates are read on a TopCount instrument.
Percent inhibition was calculated as the percent of (test compound inhibition minus non-specific binding) relative to (total binding minus non-specific binding). IC50 values were determined by curve fitting the data to a Sigmoidal dose-response in GraphPad Prism utilizing the following equation:
Y=A+(B−A)/(1+10̂((Log IC50−X))),
where A and B are the bottom and top of the curve (highest and lowest inhibition), respectively, and X is the logarithm of concentration.
The IC50 is the concentration that inhibits the measured activity by half. `Cc1ccccc1NC(=O)c1ccc(-c2ccc(NC(=O)c3oc(N4CCCC(C)C4)nc3C(F)(F)F)cn2)cc1` (centres unmarked) [Compound 333, 2-(3-methylpiperidin-1-yl)-N-(6-(4-(o-tolylcarbamoyl)phenyl)pyridin-3-yl)-4-(trifluoromethyl)oxazole-5-carboxamide]: the half-inhibitory concentration (IC50) fell in the range of 11 to 100 nM.
`Cc1ccccc1NC(=O)c1ccc(-c2ccc(NC(=O)c3oc(N4CCCC(C)C4)nc3C(F)(F)F)cc2)nc1` (centres unmarked) [Compound 242, 2-(3-methylpiperidin-1-yl)-N-(4-(5-(o-tolylcarbamoyl)pyridin-2-yl)phenyl)-4-(trifluoromethyl)oxazole-5-carboxamide]: the IC50 is 11 to 100 nM.
Under `O=C(Nc1ccc(N[C@H]2CCN(C(=O)Nc3ccccc3F)C2)nc1)c1sc(N2CCC(c3ccccc3)CC2)nc1C(F)(F)F` [Compound 259, (S)—N-(6-(1-(2-fluorophenylcarbamoyl)pyrrolidin-3-ylamino)pyridin-3-yl)-2-(4-phenylpiperidin-1-yl)-4-(trifluoromethyl)thiazole-5-carboxamide] stands 101 to 500 nM; under `Cc1cc(N2CCN(C(=O)Nc3ccccc3F)CC2)ncc1NC(=O)c1oc(N2CCCC(C)C2)nc1C(F)(F)F` (centres unmarked) [Compound 321, N-(6-(4-(2-fluorophenylcarbamoyl)piperazin-1-yl)-4-methylpyridin-3-yl)-2-(3-methylpiperidin-1-yl)-4-(trifluoromethyl)oxazole-5-carboxamide], 101 to 500 nM.
Under `CC1CCCN(c2nc(C(F)(F)F)c(C(=O)Nc3ccc(N4CCN(C(=O)[C@H]5CC[C@H](C(=O)O)CC5)CC4)nc3)o2)C1` (stereo partly drawn) [Compound 341, trans-4-[[4-[5-[[[2-(3-methyl-1-piperidinyl)-4-(trifluoromethyl)-5-oxazolyl]carbonyl]amino]-2-pyridinyl]-1-piperazinyl]carbonyl]cyclohexanecarboxylic acid] stands 101 to 500 nM; under `C[C@@H]1CN(C(=O)Nc2ccccc2F)CCN1c1ccc(NC(=O)c2oc(N3CCC(c4ccccc4)CC3)nc2C(F)(F)F)cn1` [Compound 310, (R)—N-(6-(4-(2-fluorophenylcarbamoyl)-2-methylpiperazin-1-yl)pyridin-3-yl)-2-(4-phenylpiperidin-1-yl)-4-(trifluoromethyl)oxazole-5-carboxamide], 101 to 500 nM; under `O=C(Nc1ccc(N2CCN(C(=O)Nc3ccccc3F)CC2)nc1)c1oc(N2CCc3ccccc3C2)nc1C(F)(F)F` [Compound 335, 2-(3,4-dihydroisoquinolin-2(1H)-yl)-N-(6-(4-(2-fluorophenylcarbamoyl)-piperazin-1-yl)pyridin-3-yl)-4-(trifluoromethyl)oxazole-5-carboxamide], 11 to 100 nM.
On to `CC1CCCN(c2nc(C(F)(F)F)c(C(=O)Nc3ccc(O[C@@H]4CCN(C(=O)Nc5ccccc5F)C4)nc3)o2)C1` (stereo partly drawn) [Compound 263, N-(6-((R)-1-(2-fluorophenylcarbamoyl)pyrrolidin-3-yloxy)pyridin-3-yl)-2-(3-methylpiperidin-1-yl)-4-(trifluoromethyl)oxazole-5-carboxamide], for which the IC50 was in the range of 11 to 100 nM.
In the case of `Cc1ccccc1NC(=O)c1ccc(-c2ccc(NC(=O)c3oc(N4CCCC(C)C4)nc3C(F)(F)F)cc2)cn1` (centres unmarked) [Compound 232, 2-(3-methylpiperidin-1-yl)-N-(4-(6-(o-tolylcarbamoyl)pyridin-3-yl)phenyl)-4-(trifluoromethyl)oxazole-5-carboxamide] it was 11 to 100 nM.
Under `O=C(Nc1ccc(N2CCN(C(=O)c3ccccc3F)CC2)nc1)c1oc(N2CCC(c3ccccc3)CC2)nc1C(F)(F)F` [Compound 284, N-(6-(4-(2-fluorobenzoyl)piperazin-1-yl)pyridin-3-yl)-2-(4-phenylpiperidin-1-yl)-4-(trifluoromethyl)oxazole-5-carboxamide] stands 101 to 500 nM; under `CC1CCCN(c2nc(C(F)(F)F)c(C(=O)Nc3ccc(N4CCN(C(=O)Nc5ccccc5C(=O)O)CC4)nc3)o2)C1` (centres unmarked) [Compound 300, 2-(4-(5-(2-(3-methylpiperidin-1-yl)-4-(trifluoromethyl)oxazole-5-carboxamido)pyridin-2-yl)piperazine-1-carboxamido)benzoic acid], 11 to 100 nM; under `CC1CCCN(c2nc(C(F)(F)F)c(C(=O)Nc3ccc(N4CCN(C(=O)Nc5ccccc5F)C[C@@H]4C)nc3)o2)C1` (stereo partly drawn) [Compound 315, N-(6-((S)-4-(2-fluorophenylcarbamoyl)-2-methylpiperazin-1-yl)pyridin-3-yl)-2-(3-methylpiperidin-1-yl)-4-(trifluoromethyl)oxazole-5-carboxamide], 101 to 500 nM.
In the case of `O=C(Nc1ccc(N2CCN(C(=O)Nc3ccccc3F)CC2)nc1)c1oc(N2CCCCCC2)nc1C(F)(F)F` [Compound 334, 2-(azepan-1-yl)-N-(6-(4-(2-fluorophenylcarbamoyl)piperazin-1-yl)pyridin-3-yl)-4-(trifluoromethyl)oxazole-5-carboxamide] it was 11 to 100 nM.
In the case of `O=C(Nc1ccc(N2CCN(C(=O)Nc3ccccc3F)CC2)nc1)c1oc(N2CCN(c3ccccc3F)CC2)nc1C(F)(F)F` [Compound 336, 2-(4-(2-fluorophenyl)piperazin-1-yl)-N-(6-(4-(2-fluorophenylcarbamoyl)-piperazin-1-yl)pyridin-3-yl)-4-(trifluoromethyl)oxazole-5-carboxamide], the IC50 is 101 to 500 nM.
In the case of `O=C(Nc1ccc(N2CCN(C(=O)Nc3ccccc3F)CC2)nc1)c1oc(N2CCC(O)(c3ccccc3)CC2)nc1C(F)(F)F` [Compound 324, N-(6-(4-(2-fluorophenylcarbamoyl)piperazin-1-yl)pyridin-3-yl)-2-(4-hydroxy-4-phenylpiperidin-1-yl)-4-(trifluoromethyl)oxazole-5-carboxamide] it was 101 to 500 nM.
In the case of `CC1CCCN(c2nc(C(F)(F)F)c(C(=O)Nc3ccc(N[C@H]4CCN(C(=O)c5ccccc5F)C4)nc3)o2)C1` (stereo partly drawn) [Compound 260, N-(6-((S)-1-(2-fluorobenzoyl)pyrrolidin-3-ylamino)pyridin-3-yl)-2-(3-methylpiperidin-1-yl)-4-(trifluoromethyl)oxazole-5-carboxamide], the IC50 is 101 to 500 nM.
For the molecule `O=C(Nc1ccc(N2CCN(C(=O)Nc3ccccc3F)CC2)nc1)c1oc(N2CCC(F)(c3ccccc3)CC2)nc1C(F)(F)F` [Compound 325, N-(6-(4-(2-fluorophenylcarbamoyl)piperazin-1-yl)pyridin-3-yl)-2-(4-fluoro-4-phenylpiperidin-1-yl)-4-(trifluoromethyl)oxazole-5-carboxamide], the IC50 lay within 101 to 500 nM.
Consider `O=C(Nc1ccc(N2CCN(C(=O)Nc3ccccc3F)CC2)nc1)c1oc(N2CC[C@H](c3ccccc3)C2)nc1C(F)(F)F` [Compound 270, (R)—N-(6-(4-(2-fluorophenylcarbamoyl)piperazin-1-yl)pyridin-3-yl)-2-(3-phenylpyrrolidin-1-yl)-4-(trifluoromethyl)oxazole-5-carboxamide], for which the IC50 fell in the range of 11 to 100 nM.
In the case of `CN(c1ncc(C(=O)Nc2ccc(N3CCN(C(=O)Nc4ccccc4F)CC3)nc2)c(C(F)(F)F)n1)C1CCCC1` [Compound 220, 2-(cyclopentyl(methyl)amino)-N-(6-(4-(2-fluorophenylcarbamoyl)piperazin-1-yl)pyridin-3-yl)-4-(trifluoromethyl)pyrimidine-5-carboxamide] it was 101 to 500 nM; in that of `CN(CCc1ccccc1)c1nc(C(F)(F)F)c(C(=O)Nc2ccc(N3CCN(C(=O)Nc4ccccc4F)CC3)nc2)o1` [Compound 316, N-(6-(4-(2-fluorophenylcarbamoyl)piperazin-1-yl)pyridin-3-yl)-2-(methyl(phenethyl)amino)-4-(trifluoromethyl)oxazole-5-carboxamide], 11 to 100 nM; in that of `O=C(Nc1ccc(N2CCN(C(=O)Nc3ccccc3F)CC2)nc1)c1oc(NC2CCN(Cc3ccccc3)C2)nc1C(F)(F)F` (centres unmarked) [Compound 307, 2-(1-benzylpyrrolidin-3-ylamino)-N-(6-(4-(2-fluorophenylcarbamoyl)piperazin-1-yl)pyridin-3-yl)-4-(trifluoromethyl)oxazole-5-carboxamide], 101 to 500 nM.
In the case of `O=C(Nc1ccc(N2CCN(C(=O)[C@H]3CC[C@H](C(=O)O)CC3)CC2)nc1)c1oc(N2CCC(c3ccccc3)CC2)nc1C(F)(F)F` [Compound 296, trans-4-(4-(5-(2-(4-phenylpiperidin-1-yl)-4-(trifluoromethyl)oxazole-5-carboxamido)pyridin-2-yl)piperazine-1-carbonyl)cyclohexanecarboxylic acid] it was 11 to 100 nM.
Under `CN(CC1(c2ccccc2)CC1)c1nc(C(F)(F)F)c(C(=O)Nc2ccc(N3CCN(C(=O)Nc4ccccc4F)CC3)nc2)o1` [Compound 317, N-(6-(4-(2-fluorophenylcarbamoyl)piperazin-1-yl)pyridin-3-yl)-2-(methyl((1-phenylcyclopropyl)methyl)amino)-4-(trifluoromethyl)oxazole-5-carboxamide] stands 11 to 100 nM.

These data come from patent publication US20110224136A1, “INHIBITORS OF DIACYLGLYCEROL ACYLTRANSFERASE” (priority 2008, published 2011).
